Test results as given in patent US20040235070A1, “Immune reactivity to expressed activated oncogenes for diagnosis and treatment of malignancy” (Washington Research Foundation, priority 1990, published 2004).

Tested on: lymphocytes from mice immunized with the Arg-12 peptide
Test: Proliferation assay of lymph node lymphocytes from mice immunized with ras Arg-12 peptide
Assay type: cell-based
Settings: lymphocytes from C57BL/6 mice immunized with a single dose of Arg-12 peptide; FIG. 1
Method: FIG. 1 graphically illustrates that specific T cell responses to point-mutated ras peptide can be generated by in vivo priming on day 0 with 50 μg of a peptide of 12 amino acid length constructed identically to murine ras-p21 (amino acids 5-16) but with the substitution of arginine for the glycine normally found at position 12 (i.e., position 12 of ras-p21 but position 8 of the peptide). This peptide is denoted as ras p5-16[R12] or as ras-R12. Mice were immunized with ras-R12 peptide plus adjuvant or with adjuvant alone. […]
Lymphocytes obtained from immunized mice were suspended in culture medium (consisting of RPMI 1640 Gibco supplemented with 10% fetal calf serum, 2 mM L-glutamine, 100 U/ml streptomycin, 100 U/ml penicillin and 2.5×10^−5 M 2-mercaptoethanol) and were plated in 96-well flat bottom microtiter plates (Costar Co., Cambridge, Mass.) at 1×10^5 cells per well. […] Lymphocytes from individual wells were collected onto filter paper disks using a multi-channel harvester then transferred to scintillation fluid in individual counting tubes. β emission was measured using a Beckmann liquid scintillation spectrophotometer. […]

Q: “KLVVVGARGVGK [Arg-12 peptide, residues 5-16 of ras p21 with arginine for glycine at position 12]” was tested. Which “proliferative response in vitro” value did it give?
A: Its value is “proliferate specifically”.
